Experimental findings from the Kinase Knowledgebase extract (Sharma et al. 2016) are described below.

pKi: −log10 of the molar value. A value given as a limit tells only on which side of the number the result lay.

The test addresses CDK2 (human) (UniProt P24941). Briefly: Enzyme Assay.
One may read the pKi as −log10 of the Ki, conventionally taken in molar units. In turn, `Cc1nc(Oc2ccc3c(=O)[nH][nH]c3c2)nc(Nc2cc(C3CC3)[nH]n2)c1C` showed a pKi of over 6.00.
`Cc1cc(Nc2nc(-c3ccc4[nH][nH]c(=O)c4c3)nc3cnccc23)n[nH]1` showed a pKi of over 6.00.
As for `O=c1[nH][nH]c2cc(SCCCNc3ccccn3)ccc12`, the figure is over 6.00; as for `Cc1cc(Nc2cc(N3CCOCC3)nc(OCc3ccc4c(=O)[nH][nH]c4c3)n2)n[nH]1`, over 6.00.
As for `O=c1[nH][nH]c2ccc(-c3nc(Nc4cc(-c5cccs5)[nH]n4)c4ccccc4n3)c(C(F)(F)F)c12`, the figure is over 6.00; as for `Cc1cc(Nc2nc(Oc3ccc4c(=O)[nH][nH]c4c3)cc3ccccc23)n[nH]1`, over 6.00.
The figure for `CS(=O)(=O)N1CCCCC1c1cc(Nc2n[nH]c3ccccc23)nc(-c2ccc3[nH][nH]c(=O)c3c2C(F)(F)F)n1` (stereo not given) is over 6.00; for `Cc1cc(Nc2nc(Nc3ccc4c(=O)[nH][nH]c4c3)nc3ccc(I)cc23)n[nH]1` it is over 6.00.
Compound `O=c1[nH][nH]c2cc(NCCONc3nccnn3)ccc12` had a negative-log Ki (pKi) of over 6.00.
For `Cc1cc(Nc2cc(-c3ccco3)[nH]n2)nc(-c2ccc3[nH][nH]c(=O)c3c2)n1`, the pKi is over 6.00.
As for `Cc1cc(Nc2cc(-c3cccc([N+](=O)[O-])c3)nc(Nc3ccc4c(=O)[nH][nH]c4c3)n2)n[nH]1`, the figure is over 6.00.
The figure for `O=c1[nH][nH]c2ccc(-c3cc(Nc4n[nH]c5ccccc45)nnc3NCCN3CCCCC3)c(C(F)(F)F)c12` is over 6.00; for `N#Cc1c(-c2ncnc(Nc3n[nH]c4c3CCCC4)n2)ccc2[nH][nH]c(=O)c12` it is over 6.00.
Consider `Cn1cnc(Nc2cccc(Nc3ccc4c(=O)[nH][nH]c4c3)c2)c1`, for which the pKi is over 6.00.
As for `O=c1[nH][nH]c2cc(Nc3ccc([N+](=O)[O-])c(Nc4cc(C5CC5)[nH]n4)n3)ccc12`, the figure is over 6.00; as for `O=c1[nH][nH]c2ccc(-c3nc4c(c(Nc5n[nH]c6ccc(F)cc56)n3)CN(Cc3ccccc3)CC4)c(C(F)(F)F)c12`, over 6.00; as for `O=c1[nH][nH]c2cc(Nc3nc(Nc4n[nH]c5ncccc45)c4ccccc4n3)ccc12`, over 6.00.
As for `CNc1cnc(-c2ccc3[nH][nH]c(=O)c3c2C(F)(F)F)nc1Nc1n[nH]c2ccccc12`, the figure is over 6.00.
As for `O=c1[nH][nH]c2cc(CCC3CCCC3Nc3cc(C4CC4)[nH]n3)ccc12` (stereo not given), the figure is over 6.00.
Consider `O=c1[nH][nH]c2cc(SCC3CCCC3Nc3nccnn3)ccc12` (stereo not given), for which the negative logarithm of the Ki (pKi) is over 6.00.
As for `O=C(CCSc1ccc2c(=O)[nH][nH]c2c1)Nc1nccnn1`, the figure is over 6.00.
As for `O=C1CCCN(c2cc(-c3cc4c(=O)[nH][nH]c4cc3Cl)nc(Nc3n[nH]c4ccc(F)cc34)n2)C1`, the figure is over 6.00.
The figure for `CN1CCN(C(=O)c2cc(Nc3nc(-c4ccc5[nH][nH]c(=O)c5c4)nc4ccccc34)n[nH]2)CC1` is over 6.00; for `O=c1[nH][nH]c2ccc(-c3nc4c(c(Nc5n[nH]c(-c6cccnc6)n5)n3)CCCC4)c(C(F)(F)F)c12` it is over 6.00; for `O=c1[nH][nH]c2cc(NC3CCC(Nc4ccccn4)C3)ccc12` (stereo not given) it is over 6.00.
In the case of `O=c1[nH][nH]c2cc(Sc3cc(Nc4cc(C5CC5)[nH]n4)ccn3)ccc12`, the pKi was over 6.00.
`O=c1[nH][nH]c2cc(COc3cc(Nc4n[nH]c5ccccc45)c4ccccc4n3)ccc12` gave a pKi of over 6.00.
As for `Cc1cc(Nc2nc(Nc3ccc4c(=O)[nH][nH]c4c3)nc3c2CCNC3)n[nH]1`, the figure is over 6.00; as for `Cn1cnc(NC(CCOc2ccc3c(=O)[nH][nH]c3c2)c2ccccc2)c1` (stereo not given), over 6.00; as for `O=c1[nH][nH]c2cc(OC3COCC(Nc4nccnn4)C3)ccc12` (stereo not given), over 6.00.
As for `CN1CCN(c2cc(Nc3cc(C4CC4)[nH]n3)nc(Sc3ccc4c(=O)[nH][nH]c4c3)n2)CC1`, the figure is over 6.00.
`CC(=O)Nc1ccc(Sc2cc(Nc3cc(C)[nH]n3)nc(-c3ccc4[nH][nH]c(=O)c4c3)n2)cc1`: the pKi was over 6.00.
The figure for `Cc1cc(Nc2nc(Nc3ccc4c(=O)[nH][nH]c4c3)nc(C)c2C)n[nH]1` is over 6.00; for `O=c1[nH][nH]c2cc(Cc3nc(Nc4cc(C5CC5)[nH]n4)c4ccccc4n3)ccc12` it is over 6.00; for `NCCc1cc(Nc2n[nH]c3ccccc23)nc(-c2ccc3[nH][nH]c(=O)c3c2C(F)(F)F)n1` it is over 6.00.
Consider `O=C(CCCc1ccc2c(=O)[nH][nH]c2c1)Nc1cc(C2CC2)[nH]n1`, for which the pKi is over 6.00.
Turning to `O=C(CCNc1cc(C2CC2)[nH]n1)Cc1ccc2c(=O)[nH][nH]c2c1`, the negative-log Ki (pKi) was over 6.00.
The figure for `O=C(CC(=O)Nc1ccccn1)Cc1ccc2c(=O)[nH][nH]c2c1` is over 6.00; for `Cc1cc(Nc2nc(Nc3ccc4c(=O)[nH][nH]c4c3)nc3c2CCCCC3)n[nH]1` it is over 6.00.
Take `Cc1cc(Nc2cc(C(=O)N3CCN(C)CC3)nc(Sc3ccc4c(=O)[nH][nH]c4c3)n2)n[nH]1`: the pKi is over 6.00.
The figure for `O=c1[nH][nH]c2ccc(-c3nc(Nc4n[nH]c5ccccc45)c4cccnc4n3)c(C(F)(F)F)c12` is over 6.00; for `COCc1cc(Nc2n[nH]c3ccccc23)nc(-c2ccc3[nH][nH]c(=O)c3c2)n1` it is over 6.00.
The figure for `O=c1[nH][nH]c2ccc(CNc3cc(Nc4cc(C5CC5)[nH]n4)c4ccccc4n3)cc12` is over 6.00.
On to `O=c1[nH][nH]c2cc(Nc3cc(Nc4cc(C5CC5)[nH]n4)ncn3)ccc12`, for which the pKi is over 6.00.
As for `Cc1cc(Nc2nc(-c3ccc4[nH][nH]c(=O)c4c3)nc3cc(-n4cccc4)ccc23)n[nH]1`, the figure is over 6.00.
Take `Cc1cc(Nc2cc(-c3ccccc3)[nH]n2)nc(COc2ccc3c(=O)[nH][nH]c3c2)n1`: the pKi is over 6.00.
The figure for `O=c1[nH][nH]c2cc(Nc3ncc([N+](=O)[O-])c(Nc4cc(C5CC5)[nH]n4)n3)ccc12` is over 6.00; for `O=c1[nH][nH]c2cc(Cl)c(-c3nc(Nc4n[nH]c5ccc(F)cc45)c4cnoc4n3)cc12` it is over 6.00; for `Cn1cnc(NC2CCCC(Nc3ccc4c(=O)[nH][nH]c4c3)C2)c1` (stereo not given) it is over 6.00.
The figure for `Cn1cnc(NC2COCC(Oc3ccc4c(=O)[nH][nH]c4c3)C2)c1` (stereo not given) is over 6.00; for `O=c1[nH][nH]c2cc(Nc3nc(Nc4cc(-c5ccccc5)[nH]n4)cc(-c4cccc([N+](=O)[O-])c4)n3)ccc12` it is over 6.00; for `Cc1cnc(NC(=O)CCOc2ccc3c(=O)[nH][nH]c3c2)s1` it is over 6.00.
As for `O=c1[nH][nH]c2cc(Sc3nccc(Nc4cc(C5CC5)[nH]n4)n3)ccc12`, the figure is over 6.00; as for `Cc1cnc(NC(CCNc2ccc3c(=O)[nH][nH]c3c2)c2ccccc2)s1` (stereo not given), over 6.00.
Compound `O=c1[nH][nH]c2cc(Nc3cc4ccccc4c(Nc4n[nH]c5ccccc45)n3)ccc12` gave a pKi of over 6.00.
With `Cc1cnc(NCCONc2ccc3c(=O)[nH][nH]c3c2)s1`, the pKi was over 6.00.
Take `Cc1cc(Nc2cc(-c3ccccc3)nc(Oc3ccc4c(=O)[nH][nH]c4c3)n2)n[nH]1`: the pKi was over 6.00.
The figure for `O=c1[nH][nH]c2cc(COc3cc(Nc4n[nH]c5ccccc45)ccn3)ccc12` is over 6.00.
The figure for `O=c1[nH][nH]c2ccc(-c3nc(Nc4n[nH]c(C5CC5)n4)c4ccncc4n3)c(Cl)c12` is over 6.00; for `O=c1[nH][nH]c2cc(NOCCNc3nccnn3)ccc12` it is over 6.00; for `COCCNc1cc(Nc2cc(C)[nH]n2)nc(SCc2ccc3[nH][nH]c(=O)c3c2)n1` it is over 6.00.
The figure for `Cc1cc(Nc2cc(-c3c(C)cccc3C)nc(Sc3ccc4c(=O)[nH][nH]c4c3)n2)n[nH]1` is over 6.00.
Regarding `Cc1cnc(NC2COCC(C(C)(C)c3ccc4c(=O)[nH][nH]c4c3)C2)s1` (stereo not given), the pKi was over 6.00.
The compound `O=c1[nH][nH]c2cc(CC3CCCC(Nc4cc(C5CC5)[nH]n4)C3)ccc12` (stereo not given) showed a pKi of over 6.00.
As for `Cc1cc(Nc2nc(Cc3ccc4c(=O)[nH][nH]c4c3)nc3c2CCN(Cc2ccccc2)C3)n[nH]1`, the figure is over 6.00; as for `Cc1cc(Nc2nc(-c3ccc4[nH][nH]c(=O)c4c3C(F)(F)F)nc3c2CCNCC3)n[nH]1`, over 6.00.
`O=c1[nH][nH]c2cc(NCCCNc3cc(C4CC4)[nH]n3)ccc12` had a pKi of over 6.00.
The figure for `Cc1cc(Nc2nc(Sc3ccc4c(=O)[nH][nH]c4c3)nc3cc(OCCCN4CCOCC4)ccc23)n[nH]1` is over 6.00.
Compound `Cc1cc(Nc2cc(N3CCN(C)CC3)nc(Oc3ccc4c(=O)[nH][nH]c4c3)n2)n[nH]1` gave a pKi of over 6.00.
For `Cc1cc(Nc2cc(N3CCCC3)nc(SCc3ccc4c(=O)[nH][nH]c4c3)n2)n[nH]1`, the negative logarithm of the Ki (pKi) was over 6.00.
For the compound `Cn1cnc(NCCC(=O)Oc2ccc3c(=O)[nH][nH]c3c2)c1`, the pKi is over 6.00.
Take `Cc1cnc(NC2COCC(Oc3ccc4c(=O)[nH][nH]c4c3)C2)s1` (stereo not given): the pKi was over 6.00.
As for `Cn1cnc(NC2CCC(Sc3ccc4c(=O)[nH][nH]c4c3)C2)c1` (stereo not given), the figure is over 6.00; as for `O=c1[nH][nH]c2cc(NCC3CCCC3Nc3cc(C4CC4)[nH]n3)ccc12` (stereo not given), over 6.00; as for `O=c1[nH][nH]c2cc(Nc3nc(Nc4n[nH]c5cccc(F)c45)c4ccccc4n3)ccc12`, over 6.00.
As for `O=c1[nH][nH]c2cc(OC3CCCC(Nc4nccnn4)C3)ccc12` (stereo not given), the figure is over 6.00; as for `O=c1[nH][nH]c2cc(Nc3cccc(Nc4nccnn4)c3)ccc12`, over 6.00; as for `O=c1[nH][nH]c2cc(Nc3cccc(Nc4cc(C5CC5)[nH]n4)c3)ccc12`, over 6.00.
The figure for `C#Cc1c(-c2nc(Nc3n[nH]c(C)n3)c3ccccc3n2)ccc2[nH][nH]c(=O)c12` is over 6.00; for `O=c1[nH][nH]c2cc(NC3COCC(Nc4nccnn4)C3)ccc12` (stereo not given) it is over 6.00.
In the case of `O=c1[nH][nH]c2cc(CCCONc3ccccn3)ccc12`, the pKi was over 6.00.
As to `O=c1[nH][nH]c2cc(Nc3nc(Nc4cc(C5CC5)[nH]n4)c4cc(-c5ccccc5)ccc4n3)ccc12`, the pKi is over 6.00.
As for `O=c1[nH][nH]c2cc(C(F)(F)F)c(-c3cc(Nc4n[nH]c5ccccc45)cc(-c4ccccc4)n3)cc12`, the figure is over 6.00; as for `O=c1[nH][nH]c2cc(OC3CCC(Nc4cc(C5CC5)[nH]n4)C3)ccc12` (stereo not given), over 6.00; as for `Cc1cnc(NCCC(Cc2ccccc2)Nc2ccc3c(=O)[nH][nH]c3c2)s1` (stereo not given), over 6.00.
